According to patent publication US11414402B2, “Sulfonamide-substituted cyanopyrrolidines with activity as DUB inhibitors” (MISSION THERAPEUTICS LIMITED, priority 2017, dated 2022):
Read-outs that look alike come from different tables or passages of the source.

Assays:
[1] = target: USP30 (Homo sapiens (Human), UniProt Q70CQ3); assay: USP30 biochemical IC50 assay (fluorescence polarisation)
Procedure: (§1) A typical 8-point dilution series would be 100, 30, 10, 3, 1, 0.3, 0.1, 0.03 μM final. […] Either 1 μl of 50% DMSO or diluted compound was added to the plate. USP30 was diluted in reaction buffer (40 mM Tris, pH 7.5, 0.005% Tween 20, 0.5 mg/ml BSA, 5 mM beta-mercaptoethanol) to the equivalent of 0.05 μl/well and 10 μl of diluted USP30 was added to the compound. Enzyme and compound were incubated for 30 min at room temp. Reactions were initiated by the addition of 50 nM of TAMRA labelled peptide linked to ubiquitin via an iso-peptide bond as fluorescence polarisation substrate. Reactions were read immediately after addition of substrate and following a 2-hour incubation at room temperature. Readings were performed on a Pherastar Plus (BMG Labtech). λ Excitation 540 nm; λ Emission 590 nm.

[2] = target: UCHL1 (Homo sapiens (Human), UniProt P09936); assay: UCHL1 biochemical IC50 assay (fluorescence polarisation)
Procedure: The UCHL1 construct was PCR amplified and cloned into a pFLAG-CMV-6a vector (Sigma-Aldrich) with an N-terminal FLAG tag. HEK293T cells were transfected with FLAG-UCHL1 using TransIT-LT1 transfection reagent (Mirus) according to the manufacturer's instructions. Cells were harvested 40 hours after transfection. […] The resin was washed two times with low salt buffer and one time with high salt buffer (20 mM Tris, pH 7.5, 500 mM NaCl, 0.5 mM EDTA, 5 mM beta-mercaptoethanol, protease inhibitors (complete mini, Roche) and phosphatase inhibitors (PhosSTOP mini, Roche). To elute the bound UCHL1, elution buffer (10 mM Tris, pH 7.5, 150 mM NaCl, 0.5 mM EDTA, 10% glycerol, 0.5% NP40, 5 mM beta-mercaptoethanol, 0.15 mg/ml 3× FLAG peptide (Sigma-Aldrich)) was added to the resin and incubated at 4° C. for 2.5 hours rotating. The resin was centrifuged at 4000 rpm for 30 seconds, and the supernatant containing purified FLAG-UCHL1 was removed and stored at −80° C.
UCHL1 was diluted in reaction buffer (20 mM Tris, pH 7.5, 100 mM NaCl, 0.05% Tween 20, 0.5 mg/ml BSA, 5 mM beta-mercaptoethanol) to the equivalent of 0, 0.01, 0.05, 0.1, 0.5, and 1 μl/well. Buffer was optimised for optimal temperature, pH, reducing agent, salts, time of incubation, and detergent. Reactions were initiated by the addition of 50 nM of TAMRA labelled peptide linked to ubiquitin via an iso-peptide bond as fluorescence polarisation substrate. Reactions were incubated at room temperature and read every 2 min for 120 min. Readings were performed on a Pherastar Plus (BMG Labtech). λ Excitation 540 nm; λ Emission 590 nm.
as §1, with “to” for “would”, “be” for “be 100,”, “0.03, 0.01” for “0.03”, “UCHL1” for “USP30”, “(20” for “(40”, “100 mM NaCl, 0.05%” for “0.005%”

[3] = USP30 CD (57-517), 30 min preincubation at room temp, TAMRA-peptide-ubiquitin substrate 50 nM, read after 2-hour incubation, read-out: IC50 range
[4] = FLAG-UCHL1, 30 min preincubation at room temp, TAMRA-peptide-ubiquitin substrate 50 nM, read after 2-hour incubation, read-out: IC50 range

Sequence of USP30 (Q70CQ3 57-517): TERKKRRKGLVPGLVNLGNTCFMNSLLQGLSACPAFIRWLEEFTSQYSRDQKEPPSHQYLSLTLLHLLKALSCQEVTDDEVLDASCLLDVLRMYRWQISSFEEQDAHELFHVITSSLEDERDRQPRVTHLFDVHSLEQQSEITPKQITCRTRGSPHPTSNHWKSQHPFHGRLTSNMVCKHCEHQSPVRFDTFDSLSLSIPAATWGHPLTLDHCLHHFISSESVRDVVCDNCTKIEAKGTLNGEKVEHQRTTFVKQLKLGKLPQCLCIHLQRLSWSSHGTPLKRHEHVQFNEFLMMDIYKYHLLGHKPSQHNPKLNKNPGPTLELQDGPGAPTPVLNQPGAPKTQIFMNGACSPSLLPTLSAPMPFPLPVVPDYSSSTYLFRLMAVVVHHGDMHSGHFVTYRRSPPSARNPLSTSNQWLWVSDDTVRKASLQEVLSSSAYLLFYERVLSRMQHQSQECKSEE
Sequence of UCHL1 (P09936 whole entry): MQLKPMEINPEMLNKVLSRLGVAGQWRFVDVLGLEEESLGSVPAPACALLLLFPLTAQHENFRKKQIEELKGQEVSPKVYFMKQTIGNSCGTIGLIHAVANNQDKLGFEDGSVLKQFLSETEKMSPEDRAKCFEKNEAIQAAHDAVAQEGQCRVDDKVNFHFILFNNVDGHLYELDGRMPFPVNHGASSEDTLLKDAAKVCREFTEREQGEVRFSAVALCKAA

SMILES	IC50 [1, 3] [nM]	IC50 [2, 4] [nM]	IC50 [1] [nM]	IC50 [2] [nM]
N#CN1CCC(NS(=O)(=O)c2ccc(OCc3ccccc3)cc2)C1 (centres unmarked) [Example 8]	100 to 1000	1000 to 10000	–	–
N#CN1CC[C@@H](NS(=O)(=O)c2ccc(-c3ccccc3)cc2)C1 [Example 3, (R)-N-(1-cyanopyrrolidin-3-yl)-[1,1′-biphenyl]-4-sulfonamide]	100 to 1000	10000 to 100000	–	–
N#CN1CCC(NS(=O)(=O)c2ccc(-c3cncnc3)cc2)C1 (centres unmarked) [Example 9, N-(1-cyanopyrrolidin-3-yl)-4-(pyrimidin-5-yl)benzenesulfonamide]	100 to 1000	1000 to 10000	–	–
N#CN1CCC(NS(=O)(=O)c2ccc(-c3ccccc3)cn2)C1 (centres unmarked) [Example 11, N-(1-cyanopyrrolidin-3-yl)-5-phenylpyridine-2-sulfonamide]	100 to 1000	10000 to 100000	–	–
CN(C1CCN(C#N)C1)S(=O)(=O)c1ccc(Oc2ccc(C(F)(F)F)cn2)cc1 (centres unmarked) [Example 25, N-(1-cyanopyrrolidin-3-yl)-N-methyl-4-((5-(trifluoromethyl)pyridin-2-yl)oxy)benzenesulfonamide]	100 to 1000	1000 to 10000	–	–
N#CN1CCC(NS(=O)(=O)c2ccc(-c3ccccc3)cc2)C1 (centres unmarked) [Example 2, N-(1-cyanopyrrolidin-3-yl)-[1,1′-biphenyl]-4-sulfonamide]	100 to 1000	1000 to 10000	–	–
N#CN1CCC(NS(=O)(=O)c2ccccc2)C1 (centres unmarked) [Example 5, N-(1-cyanopyrrolidin-3-yl)benzenesulfonamide]	–	10000 to 100000	–	–
N#CN1CC[C@H](NS(=O)(=O)c2ccccc2)C1 [Example 6, (S)-N-(1-cyanopyrrolidin-3-yl)benzenesulfonamide]	1000 to 10000	10000 to 100000	–	–
Cn1nccc1C(=O)Nc1ccc(S(=O)(=O)NC2CCN(C#N)C2)cn1 (centres unmarked) [Example 24, N-(5-(N-(1-cyanopyrrolidin-3-yl)sulfamoyl)pyridin-2-yl)-1-methyl-1H-pyrazole-5-carboxamide]	100 to 1000	10000 to 100000	–	–
N#CN1CCC(NS(=O)(=O)c2ccc(Oc3ccccc3)nc2)C1 (centres unmarked) [Example 16, N-(1-cyanopyrrolidin-3-yl)-6-phenoxypyridine-3-sulfonamide]	100 to 1000	10000 to 100000	–	–
CN([C@@H]1CCN(C#N)C1)S(=O)(=O)c1ccc(-c2cccnc2)cc1 [Example 20, (R)—N-(1-cyanopyrrolidin-3-yl)-N-methyl-4-(pyridin-3-yl)benzenesulfonamide]	100 to 1000	1000 to 10000	–	–
N#CN1CC[C@H](NS(=O)(=O)c2ccc(-c3ccccc3)cc2)C1 [Example 4, (S)-N-(1-cyanopyrrolidin-3-yl)-[1,1′-biphenyl]-4-sulfonamide]	100 to 1000	1000 to 10000	–	–
N#CN1CCC(NS(=O)(=O)c2ccc(-c3ccc(F)cc3)cc2)C1 (centres unmarked) [Example 12, N-(1-cyanopyrrolidin-3-yl)-4′-fluoro-[1,1′-biphenyl]-4-sulfonamide]	–	1000 to 10000	–	–
N#CN1CCC(NS(=O)(=O)c2ccc(-c3ccncc3)cc2)C1 (centres unmarked) [Example 13, N-(1-cyanopyrrolidin-3-yl)-4-(pyridin-4-yl)benzenesulfonamide]	100 to 1000	1000 to 10000	–	–
CC(C)c1ccc(S(=O)(=O)NC2CCN(C#N)C2)cc1 (centres unmarked) [Example 18, N-(1-cyanopyrrolidin-3-yl)-4-isopropylbenzenesulfonamide]	1000 to 10000	10000 to 100000	–	–
Cn1cc(-c2ccc(S(=O)(=O)NC3CCN(C#N)C3)cc2)cn1 (centres unmarked) [Example 15, N-(1-cyanopyrrolidin-3-yl)-4-(1-methyl-1H-pyrazol-4-yl)benzenesulfonamide]	100 to 1000	1000 to 10000	–	–
N#CN1CCC(NS(=O)(=O)c2ccccc2-c2ccccc2)C1 (centres unmarked) [Example 1, N-(1-cyanopyrrolidin-3-yl)-[1,1′-biphenyl]-2-sulfonamide]	100 to 1000	10000 to 100000	–	–
N#CN1CCC(NS(=O)(=O)c2ccc(Oc3ccc(C(F)(F)F)cn3)cc2)C1 (centres unmarked) [Example 19, N-(1-cyanopyrrolidin-3-yl)-4-((5-(trifluoromethyl)pyridin-2-yl)oxy)benzenesulfonamide]	100 to 1000	100 to 1000	–	–
N#CN1CCC(S(=O)(=O)Nc2ccc(-c3ccccc3)cc2)C1 (centres unmarked) [Example 26, N-([1,1′-biphenyl]-4-yl)-1-cyanopyrrolidine-3-sulfonamide]	–	–	100 to 1000	10000 to 100000
N#CN1CCC(NS(=O)(=O)c2ccc(N3CCCCC3)cc2)C1 (centres unmarked) [Example 14, N-(1-cyanopyrrolidin-3-yl)-4-(piperidin-1-yl)benzenesulfonamide]	100 to 1000	10000 to 100000	–	–
